Results reported in patent US9908890B2, “Selective inhibitors of constitutive androstane receptor” (ST. JUDE CHILDREN'S RESEARCH HOSPITAL, priority 2014, dated 2018).

Experiments:
CAR protein = test: Western blot of CAR protein in human primary hepatocytes; format: cell-based; details: 5 μM CINPA1, 48 h
Description: Briefly, CAR binding to PGC-1α coactivator peptide was determined by using the LanthaScreen® fluorescent coregulator peptide assay. Fluorescein-labeled PGC-1α peptide (125 nM) was complexed with GST-hCAR-LBD (5 nM) and Tb-anti-GST antibody (5 nM) as described in Experimental Procedures. […] Lysates were prepared, and CAR expression was analyzed by Western blot using CAR monoclonal antibody (Clone N4111, R&D Systems). β-actin was used as a loading control. […] Briefly, U2OS cells were transfected to express FLAG-hCAR1. […] Secondary antibody labeled with Alexa Fluor® 555 dye was used to visualize FLAG-tagged hCAR1 (shown in the second column) using a NikonC 1Si microscope. Nuclei were stained with DAPI (shown in the first column).

hPXR = target: T1, hPXR (Homo sapiens, UniProt O75469); test: PXR luciferase assay (HepG2-PXR Clone 1, CYP3A4-luciferase reporter); format: cell-based
T1 construct: expressed in transfected cells
T1 sequence (O75469 1-434): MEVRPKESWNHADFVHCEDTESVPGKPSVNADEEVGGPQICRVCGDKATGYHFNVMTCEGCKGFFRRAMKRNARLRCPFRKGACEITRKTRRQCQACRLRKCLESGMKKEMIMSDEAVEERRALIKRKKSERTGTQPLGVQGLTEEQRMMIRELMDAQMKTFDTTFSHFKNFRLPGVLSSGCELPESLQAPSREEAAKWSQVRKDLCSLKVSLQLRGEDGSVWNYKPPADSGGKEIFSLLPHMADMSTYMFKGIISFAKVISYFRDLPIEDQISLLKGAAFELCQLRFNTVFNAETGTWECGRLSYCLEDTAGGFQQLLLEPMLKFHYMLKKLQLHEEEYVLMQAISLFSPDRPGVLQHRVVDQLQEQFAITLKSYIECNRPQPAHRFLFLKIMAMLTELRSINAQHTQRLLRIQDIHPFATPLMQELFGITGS
Description: Luciferase activity was measured 24 h after treatment by using SteadyLite™ reagent. […] GraphPad Prism was used to fit the data into a dose-response equation to derive IC50 values. […] The percentage of PXR activation was calculated by setting that of DMSO-treated cells (negative control) to 0%, and that of 5 μM rifampicin-treated cells (positive control) to 100%. HepG2 cells stably expressing hPXR and CYP3A4-luciferase reporter (PXR Clone 1) were treated with indicated compounds for 24 h. Luciferase activity was measured 24 h after treatment by using SteadyLite reagent. The percentage of PXR activation was calculated by setting that of DMSO-treated cells (negative control) to 0%, and that of 5 μM rifampicin-treated cells (positive control) to 100%.
Briefly, HepG2 cells were transiently transfected with plasmids expressing hCAR1, CYP3A4-luc reporter and control plasmid pTK-RL. […] Dual luciferase activity was measured 24 h after treatment using Dual-Glo® luciferase reagent. Renilla luciferase was used to normalize firefly luciferase values and % Luciferase activity was calculated by setting DMSO to 100%. p<0.001, when comparing DMSO to all treatments except 5 μM rifampicin. […] Briefly, HepG2-PXR Clone 1 cells were treated with CINPA1 in a dose-responsive format (40 μM to 2 nM, 1-to-2 dilutions for 10 concentrations) in the presence or absence of 5 μM rifampicin (Rif) for 24 h before luciferase assay using SteadyLite™. % PXR activity was calculated by setting DMSO (negative. control) treated cells to 0% and 5 μM rifampicin (positive. control) treated cells to 100%. GraphPad Prism was used to fit the data into a dose-response stimulation equation to derive IC50 values. […] Briefly, U2OS cells were transiently transfected with plasmids expressing hCAR1, CYP2B6-luc reporter and control plasmid pTK-RL. […] Dual luciferase activity was measured 24 h after treatment. Renilla luciferase was used to normalize firefly luciferase values and % Luciferase activity was calculated by setting DMSO to 100%. *, p<0.0001 comparing CITCO+CINPA1 to CITCO treated cells. […]

[1] = test system: CAR-regulated genes in HepG2-hCAR1 cells; test: Quantitative real-time PCR in HepG2-hCAR1 cells; format: cell-based, human
Description: RNA was extracted, cDNA synthesized, and gene expression analyzed by performing real-time PCR using Taqman probes for each gene. […] LS174T cells were maintained in 10% charcoal-dextran-treated, FBS media for 4 days before the experiment. […] Briefly, human primary hepatocytes (HPH) were maintained in William's E media with supplements for 4 days before treatment. […] RNA extracted was used for cDNA synthesis and measured by performing quantitative real-time PCR assays with Taqman probes.
Briefly, LS174T were maintained in 10% charcoal-dextran treated-FBS media for 4 days prior to the experiment. […] For the data shown in both FIG. 12A and FIG. 12B, RNA extracted was used for cDNA synthesis and measured by quantitative real-time PCR with Taqman probes. MDR1 mRNA was normalized to the internal control 18S and DMSO treated samples were set to 1. *, p<0.05 when compared to DMSO samples.
Cell lines or human hepatocytes were treated with chemicals for 24-48 hours before RNA was extracted and purified by using the Maxwell 16LEV simplyRNA tissue kit (Promega). Then, cDNA was prepared from 2 μg of RNA, and diluted cDNA was used to perform quantitative RT-PCR assays by using TaqMan probes (ABI; 7500 Thermocycler) with 18S as the internal standard.

For `CCOC(=O)Nc1ccc2c(c1)N(C(=O)CN(CC)CC)c1ccccc1CC2` [CINPA1], the CAR protein level (CAR protein) was “had no effect”, the “inhibition of PXR-mediated gene expression” value (hPXR; 18 μM CINPA1 with 5 μM rifampicin, 24 h) was “weakly inhibited PXR-mediated gene expression” and the “agonistic effect on PXR-regulated gene expression” value (hPXR; 40 μM) was “did not exhibit any agonistic effect”. For the same compound, the IC50 (hPXR; in the presence of 5 μM rifampicin, read-out: IC50, antagonist of PXR) was 6.6 µM, the “MDR1 mRNA level” value ([1]; HepG2-hCAR1, 0.1 μM CINPA1 or 1 μM PK11195, 24 h) was “reduced MDR1 levels” and the “CYP2B6 mRNA level” value ([1]; HepG2-hCAR1, 1 μM, 24 h) was “substantially and significantly attenuated”. For the same compound, the “CYP3A4 mRNA level” value ([1]; HepG2-hCAR1, 1 μM, 24 h) was “substantially and significantly attenuated”.
